Earlier results as cited in article PMC2643498 (The Journal of Biological Chemistry, 2009).

Legend:
AtNCED3 = settings: 100 μM
recombinant NCED = settings: read-out: Ki (NCED)
AtCCD1 = settings: 100 μM

Ki (recombinant NCED): 18.5 µM
Substance: abamineSG
inhibition of AtNCED3 (AtNCED3): 78%
inhibition of AtCCD1 (AtCCD1): ≤ 20%
